Results as given in patent US10479780B2, “Aminopyrazole derivatives” (Chugai Seiyaku Kabushiki Kaisha, priority 2015, dated 2019).

How the values were obtained:
Format in all cases: biochemical
[1] = target: T1, human Src enzyme (Homo sapiens, UniProt P12931); experiment: Src enzyme inhibitory activity (time-resolved fluorometry, biotinylated peptide phosphorylation); settings: biotinylated peptide phosphorylation, read-out: SRC_IC50
T1 construct: purchased Carna Biosciences, Inc. 08-173
Summary of the method: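 Compounds were tested for blocking tyrosine phosphorylation of a biotinylated peptide substrate by recombinant human Src. Phosphorylated product was quantified by time-resolved fluorometry using europium cryptate and XL665 conjugates, and IC50 was calculated against the compound-free control.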

[2] = target: T2, human Lck enzyme (Homo sapiens, UniProt P06239); experiment: Lck enzyme inhibitory activity (time-resolved fluorometry, biotinylated peptide phosphorylation); settings: biotinylated peptide phosphorylation, read-out: LCK_IC50
T2 construct: purchased Carna Biosciences, Inc. 08-170
Summary of the method: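 Readout pairs a europium cryptate-labelled anti-phosphotyrosine antibody with XL665-streptavidin, measured by time-resolved fluorescence. IC50 derived from percent inhibition against untreated controls.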

[3] = target: T3, human Yes1 enzyme (Homo sapiens, UniProt P07947); experiment: Yes1 enzyme inhibitory activity (time-resolved fluorometry, biotinylated peptide phosphorylation); settings: biotinylated peptide phosphorylation, read-out: YES_IC50
T3 construct: made in house
Summary of the method: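 Inhibition was expressed against a compound-free control to give IC50, using TR-FRET read-out (Eu-cryptate anti-pTyr antibody, streptavidin-XL665).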

T3 sequence (P07947 whole entry): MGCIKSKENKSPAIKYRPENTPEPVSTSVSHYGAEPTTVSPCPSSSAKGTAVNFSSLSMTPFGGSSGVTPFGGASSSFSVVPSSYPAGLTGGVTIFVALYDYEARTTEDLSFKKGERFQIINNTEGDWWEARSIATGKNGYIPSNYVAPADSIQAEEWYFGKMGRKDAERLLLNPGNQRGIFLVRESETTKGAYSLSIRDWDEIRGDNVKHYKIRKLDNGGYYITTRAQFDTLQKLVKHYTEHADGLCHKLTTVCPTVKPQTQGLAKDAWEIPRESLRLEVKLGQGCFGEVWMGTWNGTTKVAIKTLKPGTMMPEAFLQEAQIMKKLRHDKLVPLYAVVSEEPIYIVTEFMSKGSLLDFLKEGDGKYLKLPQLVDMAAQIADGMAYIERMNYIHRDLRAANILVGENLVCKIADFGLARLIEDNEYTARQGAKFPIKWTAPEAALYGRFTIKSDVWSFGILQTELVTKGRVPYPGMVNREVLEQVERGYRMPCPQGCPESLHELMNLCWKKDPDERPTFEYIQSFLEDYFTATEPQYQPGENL
T1 sequence (P12931 whole entry): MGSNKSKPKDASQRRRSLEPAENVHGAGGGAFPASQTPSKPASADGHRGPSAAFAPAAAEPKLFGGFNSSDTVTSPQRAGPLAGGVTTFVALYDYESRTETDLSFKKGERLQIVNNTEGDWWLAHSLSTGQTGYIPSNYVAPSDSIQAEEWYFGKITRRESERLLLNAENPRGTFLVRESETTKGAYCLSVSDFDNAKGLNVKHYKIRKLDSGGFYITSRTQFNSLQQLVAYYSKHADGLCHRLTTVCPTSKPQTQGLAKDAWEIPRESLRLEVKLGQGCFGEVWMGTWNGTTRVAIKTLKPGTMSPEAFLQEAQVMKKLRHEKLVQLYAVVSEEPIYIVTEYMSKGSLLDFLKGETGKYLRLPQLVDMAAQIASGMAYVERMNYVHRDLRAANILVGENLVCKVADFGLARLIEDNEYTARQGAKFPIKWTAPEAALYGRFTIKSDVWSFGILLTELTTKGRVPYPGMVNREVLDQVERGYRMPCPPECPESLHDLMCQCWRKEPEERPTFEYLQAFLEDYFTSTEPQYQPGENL
T2 sequence (P06239 whole entry): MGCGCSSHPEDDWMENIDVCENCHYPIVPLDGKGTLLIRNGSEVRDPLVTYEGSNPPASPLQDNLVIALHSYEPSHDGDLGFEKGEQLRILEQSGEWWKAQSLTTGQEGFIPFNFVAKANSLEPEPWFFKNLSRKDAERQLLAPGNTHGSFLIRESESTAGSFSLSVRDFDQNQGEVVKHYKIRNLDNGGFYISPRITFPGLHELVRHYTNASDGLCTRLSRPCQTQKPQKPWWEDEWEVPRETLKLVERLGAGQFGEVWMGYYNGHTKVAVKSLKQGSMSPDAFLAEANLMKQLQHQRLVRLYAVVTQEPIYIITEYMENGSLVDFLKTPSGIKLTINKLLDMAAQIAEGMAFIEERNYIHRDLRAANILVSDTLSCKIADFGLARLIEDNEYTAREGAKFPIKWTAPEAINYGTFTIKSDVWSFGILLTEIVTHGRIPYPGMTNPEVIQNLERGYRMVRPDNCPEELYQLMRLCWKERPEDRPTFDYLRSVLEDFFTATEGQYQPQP

Row | SMILES | IC50 [1] [nM] | IC50 [2] [nM] | IC50 [3] [nM]
1 | Cc1cc2cc(C(=O)c3cnn(-c4cnc(Oc5cccc(Cl)c5)cc4C)c3N)[nH]c2cc1NS(=O)(=O)N1CCOCC1 [Example 4-2-111, N-[2-[5-amino-1-[6-(3-chlorophenoxy)-4-methylpyridin-3-yl]pyrazole-4-carbonyl]-5-methyl-1H-indol-6-yl]morpholine-4-sulfonamide] | 690 | 320 | 41
2 | Cc1cc2cc(C(=O)c3cnn(-c4c(C)cc(Oc5ccccc5F)cc4F)c3N)[nH]c2cc1N1CCCS1(=O)=O [Example 4-2-114, [5-amino-1-[2-fluoro-4-(2-fluorophenoxy)-6-methylphenyl]pyrazol-4-yl]-[6-(1,1-dioxo-1,2-thiazolidin-2-yl)-5-methyl-1H-indol-2-yl]methanone] | 72 | 16 | 5
3 | Cc1cc2cc(C(=O)c3cnn(-c4c(C)cc(Oc5cccc(F)c5F)cc4F)c3N)[nH]c2cc1N1CCCS1(=O)=O [Example 4-2-115, [5-amino-1-[4-(2,3-difluorophenoxy)-2-fluoro-6-methylphenyl]pyrazol-4-yl]-[6-(1,1-dioxo-1,2-thiazolidin-2-yl)-5-methyl-1H-indol-2-yl]methanone] | 63 | 16 | 4.1
4 | Cc1cc2cc(C(=O)c3cnn(-c4cnc(Oc5c(F)cccc5F)cc4C)c3N)[nH]c2cc1N1CCCS1(=O)=O [Example 4-2-116, [5-amino-1-[6-(2,6-difluorophenoxy)-4-methylpyridin-3-yl]pyrazol-4-yl]-[6-(1,1-dioxo-1,2-thiazolidin-2-yl)-5-methyl-1H-indol-2-yl]methanone] | 43 | 9.3 | 1.5
5 | Cc1cc2cc(C(=O)c3cnn(-c4cnc(Oc5cccc(Cl)c5)cc4C)c3N)[nH]c2cc1N1CCCS1(=O)=O [Example 4-2-118, [5-amino-1-[6-(3-chlorophenoxy)-4-methylpyridin-3-yl]pyrazol-4-yl]-[6-(1,1-dioxo-1,2-thiazolidin-2-yl)-5-methyl-1H-indol-2-yl]methanone] | 110 | 35 | 5.7
6 | Cc1cc2cc(C(=O)c3cnn(-c4cnc(Oc5ccc(F)cc5)cc4C)c3N)[nH]c2cc1N1CCCS1(=O)=O [Example 4-2-119, [5-amino-1-[6-(4-fluorophenoxy)-4-methylpyridin-3-yl]pyrazol-4-yl]-[6-(1,1-dioxo-1,2-thiazolidin-2-yl)-5-methyl-1H-indol-2-yl]methanone] | 70 | 23 | 7.4
7 | Cc1cc2cc(C(=O)c3cnn(-c4cnc(Oc5ccccc5F)cc4C)c3N)[nH]c2cc1N1CCOCC1 [Example 4-2-123, [5-amino-1-[6-(2-fluorophenoxy)-4-methylpyridin-3-yl]pyrazol-4-yl]-(5-methyl-6-morpholin-4-yl-1H-indol-2-yl)methanone] | 37 | 5.8 | 1.9
8 | Cc1cc(Oc2cccc(F)c2F)cc(F)c1-n1ncc(C(=O)c2cc3cc(F)c(N)cc3[nH]2)c1N [Example 4-3-001, {5-amino-1-[4-(2,3-difluorophenoxy)-2-fluoro-6-methylphenyl]pyrazol-4-yl}-(6-amino-5-fluoro-1H-indol-2-yl)methanone] | 92 | 24 | 4.3
9 | Cc1cc(Oc2ccccc2F)ncc1-n1ncc(C(=O)c2cc3cc(F)c(NS(=O)(=O)N4CCOCC4)cc3[nH]2)c1N [Example 4-5-001, N-{2-{5-amino-1-[6-(2-fluorophenoxy)-4-methylpyridin-3-yl]pyrazole-4-carbonyl}-5-fluoro-1H-indol-6-yl}morpholine-4-sulfonamide] | 120 | 33 | 1.2
10 | Cc1cc(Oc2ccccc2F)ccc1-n1ncc(C(=O)c2cc3cc(F)c(NS(=O)(=O)N4CCOCC4)cc3[nH]2)c1N [Example 4-5-002, N-[2-[5-amino-1-[4-(2-fluorophenoxy)-2-methylphenyl]pyrazole-4-carbonyl]-5-fluoro-1H-indol-6-yl]morpholine-4-sulfonamide] | 49 | 23 | 0.76

Compounds with a lower IC50 [1], results first:

Row | IC50 [1] [nM] | IC50 [2] [nM] | IC50 [3] [nM] | SMILES
11 | 23 | 8.3 | 0.93 | Cc1cc2cc(C(=O)c3cnn(-c4ccc(Oc5ccccc5F)cc4C)c3N)[nH]c2cc1N1CCCS1(=O)=O [Example 4-2-112, [5-amino-1-[4-(2-fluorophenoxy)-2-methylphenyl]pyrazol-4-yl]-[6-(1,1-dioxo-1,2-thiazolidin-2-yl)-5-methyl-1H-indol-2-yl]methanone]
12 | 18 | 7.1 | 0.63 | Cc1cc2cc(C(=O)c3cnn(-c4ccc(Oc5cccc(F)c5F)cc4C)c3N)[nH]c2cc1N1CCCS1(=O)=O [Example 4-2-113, [5-amino-1-[4-(2,3-difluorophenoxy)-2-methylphenyl]pyrazol-4-yl]-[6-(1,1-dioxo-1,2-thiazolidin-2-yl)-5-methyl-1H-indol-2-yl]methanone]
13 | 21 | 4.8 | 0.6 | Cc1cc2cc(C(=O)c3cnn(-c4cnc(Oc5ccccc5Cl)cc4C)c3N)[nH]c2cc1N1CCCS1(=O)=O [Example 4-2-117, [5-amino-1-[6-(2-chlorophenoxy)-4-methylpyridin-3-yl]pyrazol-4-yl]-[6-(1,1-dioxo-1,2-thiazolidin-2-yl)-5-methyl-1H-indol-2-yl]methanone]
14 | 28 | 4 | 1 | COc1cc2cc(C(=O)c3cnn(-c4c(C)cc(Oc5ccccc5F)cc4F)c3N)[nH]c2cc1N1CCCS1(=O)=O [Example 4-2-120, [5-amino-1-[2-fluoro-4-(2-fluorophenoxy)-6-methylphenyl]pyrazol-4-yl]-[6-(1,1-dioxo-1,2-thiazolidin-2-yl)-5-methoxy-1H-indol-2-yl]methanone]
15 | 8 | 2.1 | 0.54 | COc1cc2cc(C(=O)c3cnn(-c4cnc(Oc5c(F)cccc5F)cc4C)c3N)[nH]c2cc1N1CCCS1(=O)=O [Example 4-2-121, [5-amino-1-[6-(2,6-difluorophenoxy)-4-methylpyridin-3-yl]pyrazol-4-yl]-[6-(1,1-dioxo-1,2-thiazolidin-2-yl)-5-methoxy-1H-indol-2-yl]methanone]
16 | 34 | 7.3 | 3.6 | Cc1cc2cc(C(=O)c3cnn(-c4ccc(Oc5ccccc5F)cc4C)c3N)[nH]c2cc1N1CCOCC1 [Example 4-2-122, [5-amino-1-[4-(2-fluorophenoxy)-2-methylphenyl]pyrazol-4-yl]-(5-methyl-6-morpholin-4-yl-1H-indol-2-yl)methanone]
17 | 34 | 6.9 | 4.1 | Cc1cc2cc(C(=O)c3cnn(-c4cnc(Oc5c(F)cccc5F)cc4C)c3N)[nH]c2cc1N1CCOCC1 [Example 4-2-124, [5-amino-1-[6-(2,6-difluorophenoxy)-4-methylpyridin-3-yl]pyrazol-4-yl]-(5-methyl-6-morpholin-4-yl-1H-indol-2-yl)methanone]
18 | 28 | 2.6 | 2.4 | Cc1cc2cc(C(=O)c3cnn(-c4cnc(Oc5c(F)cccc5F)cc4C)c3N)[nH]c2cc1N1CCC(N2CCOCC2)CC1 [Example 4-2-125, [5-amino-1-[6-(2,6-difluorophenoxy)-4-methylpyridin-3-yl]pyrazol-4-yl]-[5-methyl-6-(4-morpholin-4-ylpiperidin-1-yl)-1H-indol-2-yl]methanone]
19 | 13 | 2 | 1.3 | CCN(c1cc2[nH]c(C(=O)c3cnn(-c4cnc(Oc5c(F)cccc5F)cc4C)c3N)cc2cc1F)S(C)(=O)=O [Example 4-2-126]
20 | 23 | 3.7 | 1.3 | Cc1cc(Oc2c(F)cccc2F)ncc1-n1ncc(C(=O)c2cc3cc(F)c(N(C4CCOCC4)S(C)(=O)=O)cc3[nH]2)c1N [Example 4-2-127, N-[2-[5-amino-1-[6-(2,6-difluorophenoxy)-4-methylpyridin-3-yl]pyrazole-4-carbonyl]-5-fluoro-1H-indol-6-yl]-N-(oxan-4-yl)methanesulfonamide]
21 | 8.6 | 2.7 | 1.2 | Cc1cc(Oc2c(F)cccc2F)ncc1-n1ncc(C(=O)c2cc3cc(F)c(N(CCN4CCOCC4)S(C)(=O)=O)cc3[nH]2)c1N [Example 4-2-128, N-[2-[5-amino-1-[6-(2,6-difluorophenoxy)-4-methylpyridin-3-yl]pyrazole-4-carbonyl]-5-fluoro-1H-indol-6-yl]-N-(2-morpholin-4-ylethyl)methanesulfonamide]
22 | 3.2 | 1.4 | 0.59 | Cc1cc(Oc2ccccc2F)ncc1-n1ncc(C(=O)c2cc3cc(NS(C)(=O)=O)c(OCCN4CCOCC4)cc3[nH]2)c1N [Example 4-2-129]
23 | 34 | 4.5 | 1.4 | Cc1cc(Oc2ccccc2F)ncc1-n1ncc(C(=O)c2cc3cc(N(CCN4CCOCC4)S(C)(=O)=O)c(O)cc3[nH]2)c1N [Example 4-2-130]
24 | 21 | 8.2 | 6.3 | Cc1cc(Oc2c(F)cccc2F)ncc1-n1ncc(C(=O)c2cc3cc(OC(F)F)c(C4CCNCC4)cc3[nH]2)c1N [Example 4-4-001, (5-amino-1-(6-(2,6-difluorophenoxy)-4-methylpyridin-3-yl)-1H-pyrazol-4-yl)(5-(difluoromethoxy)-6-(piperidin-4-yl)-1H-indol-2-yl)methanone]
